In patent publication US20200148617A1, “GEMCABENE, PHARMACEUTICALLY ACCEPTABLE SALTS THEREOF, COMPOSITIONS THEREOF AND METHODS OF USE THEREFOR” (GEMPHIRE THERAPEUTICS INC., priority 2017, published 2020):

Experiments:
[1] = Solubility of gemcabene calcium salt Crystal Form 1 by solvent addition method; assay type: physicochemical
Description: Approximately 20 mg of gemcabene calcium Crystal Form 1 was added to 5×2 mL vials. The solubility in 5 solvents was tested using a solvent addition method. Solvents included acetone, ethanol, ethyl acetate, t-butyl methyl ether (t-BME) and water. Solvent was added in 5 volume (100 μL) aliquots until either dissolution or 2 mL in total had been added. Between each addition, samples were heated to 60° C. (40° C. for acetone and t-BME). Any solids remaining after 24 hours at ambient were analyzed by X-ray powder diffraction (XRPD).

[2] = Particle size distribution by laser light diffraction (Malvern Mastersizer 2000, Fraunhofer); assay type: physicochemical; details: cumulative volume
Description: In some embodiments, the particle size distribution and the PSD90 of a compound of the invention is determined by the laser light diffraction particle size distribution analysis. The particle size distribution is determined in accordance with the Fraunhofer light diffraction method. In this method, a coherent laser beam passes through the sample and the resulting diffraction pattern is focused on a multi-element detector. Since the diffraction pattern depends, among other parameters, on particle size, the particle size distribution can be calculated based on the measured diffraction pattern of the sample. The method is described in more detail in USP38-NF33, <429> Light Diffraction Measurement of Particle Size.
The particle size distribution was determined in accordance with the Fraunhofer light diffraction method. A coherent laser beam was passed through the sample and the resulting diffraction pattern was focused on a multi-element detector. Because the diffraction pattern depends, among other parameters, on particle size, the particle size distribution (PSD) was calculated based on the measured diffraction patter of the sample.
Stock dispersion solution was prepared by adding a few drops of the dispersing aid (e.g., 1% w/w solution of a detergent in white spirit such as Span 80, Fluka (85548-250 ml)) to an appropriate amount of substance and mixed carefully. The dispersion was then slowly diluted to a final volume of about 10 ml while vortexing. The suspension cell of the instrument (Malvern Mastersizer 2000 equipped with Hydro 2000S sample dispersion unit) was filled with dispersion medium and a background measurement was taken. […] The cumulative volume distribution was determined in accordance with the instrument's instruction manual.
The PSD10, PSD50, and PSD90 values were determined from the cumulative volume distribution of each measurement. Values smaller than 10 μm were reported to one decimal place. Results larger than 10 μm were reported as single digit values. Sample parameters used in analysis are shown below: […]

[3] = system: patients with hypercholesterolemia on stable statins; assay: 12-week placebo-controlled study of 600 mg QD in hypercholesterolemia patients on stable moderate and high-intensity statins: atherogenic and inflammatory biomarkers; assay type: in vivo, human; details: add-on to background statins
Description: High-risk patients including some, but not all those with heterozygous familial hypercholesterolemia (HeFH) or atherosclerotic cardiovascular disease (ASCVD) on appropriate diet and stable statin therapy for at least 12 weeks and LDL-C ≥100 mg/dL (2.59 mmol/L) and triglycerides <500 mg/dL (5.65 mmol/L) were randomized into a 12-week, placebo-controlled, parallel-group, double-blind study to assess the efficacy of gemcabene calcium salt hydrate Crystal Form 1 (PSD90=52 μm) 600 mg (300-mg Tablet D×2) QD on LDL-C and other lipoproteins and hsCRP (high-sensitivity C-reactive protein). Safety and tolerability were also evaluated. […]
Within the study population, an analysis was performed in a subpopulation of patients having mixed dyslipidemia (LDL-C ≥100 mg/dL and triglycerides ≥200 and <500 mg/dL). Eighteen patients (10 (Tablet D×2) patients and 8 placebo patients) having a baseline mean LDL-C level of 142 mg/dL, baseline mean triglyceride level of 247 mg/dL and BMI of 34 kg/m^2 were analyzed (FIG. 48). Although not measured in the subpopulation of this Example, some cardiometabolic patients could have elevated sulphatase-2 (Sulf-2) levels, which are believed to cause reduced Syndecan-1 (also known as “remnant receptor”)-mediated clearance of atherogenic remnant lipoproteins. […]

For `CC(C)(CCCCOCCCCC(C)(C)C(=O)[O-])C(=O)[O-].O.[Ca+2]` [6-(5-Carboxy-5-methyl-hexyloxy)-2,2-dimethylhexanoic acid calcium (gemcabene calcium salt) hydrate Crystal Form 1], which Solubility ([1]; /-Butyl Methyl Ether (t-BME)) is on record?
The Solubility was less than 10000 µg/mL.

What about the Solubility ([1]; Acetone) of the same compound?
The Solubility was less than 10000 µg/mL.

And the Solubility ([1]; Ethanol)?
The Solubility was less than 10000 µg/mL.

And the Solubility ([1]; Ethyl Acetate)?
The Solubility was less than 10000 µg/mL.

And the Solubility ([1]; Water)?
The Solubility was 33000 µg/mL.

And the “D10 (PSD10)” value [2]?
The value was “D10 = 8.9 μm”.

And the “D50 (PSD50)” value [2]?
Its value is “D50 = 24.3 μm”.

And the “D90 (PSD90)” value [2]?
The value was “D90 = 44.1 μm”.

And the “serum hsCRP” value [3]?
Its value is “decreased”.
